Laboratory results taken from publication PMC10063609, “Discovery of novel cardiac troponin activators using fluorescence polarization-based high throughput screening assays” (Scientific Reports, 2023).
Structures can show the parent of a compound that is named as a salt.

Target: interaction between cTnC and switch peptide of cTnI (cTnISP) (Homo sapiens, UniProt P63316)
Experiment: Fluorescence polarization HTS and dose-response, cTnC/FAM-cTnISP
Type: binding
Conditions: cTnISP primary screen, single concentration 50 μmol/L

Compound | FP (mP) (LOPAC 1280 library) | FP (mP) (TOCRIScreen library) | FP (mP) (ENZO Screenwell library)
CCCCCCCCCCCCCCCC(=O)OC(CC(=O)O)C[N+](C)(C)C.[Cl-] (racemic) [Palmitoyl-DL-Carnitine chloride] | 109.8 mP | – | –
CCN(CC)CCCCN1c2ccccc2Oc2ccc(Cl)cc21.Cl [10-DEBC hydrochloride] | – | 82.8 mP | –
CCN1CCN(Cc2ccc(-c3cc4c(N[C@H](C)c5ccccc5)ncnc4[nH]3)cc2)CC1 [AEE 788] | – | 77.8 mP | –
Cn1c(NC[C@@H](N)Cc2ccccc2)nc(-c2ccncc2)c(-c2ccc3ccccc3c2)c1=O [AMG 548] | – | 90 mP | –
COc1cc(N2CCN(C)CC2)ccc1Nc1nccc(-c2cn(C)c3cnccc23)n1 [AZ 191] | 88.5 mP | 83.4 mP | –
Cc1cc(N2C[C@@H](C)N[C@@H](C)C2)ncc1-c1ccc(-c2nc3c(ccn3C)c(=O)[nH]2)cc1 [AZ 6102] | – | 83.4 mP | –
CCOC(=O)c1c(CSc2ccccc2)n(C)c2cc(Br)c(O)c(CN(C)C)c12.Cl [Arbidol hydrochloride] | 89.4 mP | – | –
O=C1CCc2ccc(OCCCCN3CCN(c4cccc(Cl)c4Cl)CC3)cc2N1 [Aripiprazole] | – | 86 mP | –
Cc1c(NC(=O)OC[C@@H]2COCCN2)cn2ncnc(Nc3ccc4c(cnn4Cc4cccc(F)c4)c3)c12.Cl.Cl [BMS 599626 dihydrochloride] | – | 88.2 mP | –
CC(C)c1cnn2c(NCc3ccccc3)cc(NCCCCCCN)nc12.Cl.Cl [BS 181 dihydrochloride] | – | 73.2 mP | –
O[C@@H](CN1CCNCC1)Cn1c2ccc(Br)cc2c2cc(Br)ccc21 [Bax channel blocker] | – | 77.1 mP | –
Cc1c(-c2ccc(O)cc2)n(Cc2ccc(OCCN3CCCCCC3)cc2)c2ccc(O)cc12 [Bazedoxifene acetate] | – | 74.5 mP | –
c1ccc2cc(-c3ncc[nH]3)ccc2c1 [Benazoline oxalate] | 83.7 mP | – | –
CC(C)COCC(CN(Cc1ccccc1)c1ccccc1)N1CCCC1 (stereo not shown) [Bepridil hydrochloride] | – | 87 mP | –
COc1cc2nc(N3CCC(N4CCCCC4)CC3)nc(NC3CCCCCC3)c2cc1OC.Cl.Cl [C 021 dihydrochloride] | – | 87.1 mP | –
OCCNC1CCCc2c1[nH]c1ccc(-c3ccccc3)cc21 (stereo not shown) [CASIN] | – | 80.4 mP | –
Cc1cc(CN2CCN(c3c(Br)cnc4nc(-c5ccc(N6CCN(C)CC6)cc5)[nH]c34)CC2)no1 [CCT 137690] | 87 mP | 83.6 mP | –
CCCNc1ccc2ncc(-c3ccc4[nH]ncc4c3)n2n1.O=C(O)C(F)(F)F [CHR 6494 trifluoroacetate] | – | 81.9 mP | –
Br.Cc1cc2nc(NCCCO)n(CC(=O)c3cc(C(C)(C)C)c(O)c(C(C)(C)C)c3)c2cc1C [CID2858522] | 89.6 mP | – | –
Cc1cc(CN)cc(C)c1NC(=O)c1ccc(-c2cc(Cl)ccc2Cl)o1 [CYM50358] | 84.1 mP | – | –
Clc1ccc(C(c2ccc(Cl)cc2)n2cc[n+](CC(OCc3ccc(Cl)cc3Cl)c3ccc(Cl)cc3Cl)c2)cc1 (stereo not shown) [Calmidazolium chloride] | 83.6 mP | – | –
CCCC[C@@H](C=O)NC(=O)[C@H](CC(C)C)NC(=O)OCc1ccccc1 [Calpeptin] | – | 121.8 mP | –
CN(C)CCCN1c2ccccc2Sc2ccc(Cl)cc21 [Chlorpromazine.HCl] | 91.3 mP | – | 88.9 mP
C[C@@H](NCCCc1cccc(C(F)(F)F)c1)c1cccc2ccccc12 [Cinacalcet.HCl] | – | – | 82.4 mP
CC(C)/N=c1\cc2n(-c3ccc(Cl)cc3)c3ccccc3nc-2cc1Nc1ccc(Cl)cc1 [Clofazimine] | – | – | 85.2 mP
CCN(CC)CCOc1ccc(C(=C(Cl)c2ccccc2)c2ccccc2)cc1 [Clomiphene Citrate] | – | – | 63.2 mP
CCN1CCN(Cc2ccc(C(=O)Nc3ccc(C)c(Oc4ccc5c(c4)CC(=O)N5)c3)cc2C(F)(F)F)CC1.Cl.Cl [DDR1-IN-1 dihydrochloride] | – | 74.4 mP | –
CN1CCN(c2ccc(/C=C(\C#N)c3ccccc3Br)cc2)CC1.Cl.Cl [DG 172 dihydrochloride] | – | 81 mP | –
